This note sets out measurements from patent publication US20230391772A1, “METHODS AND COMPOSITIONS FOR TARGETED PROTEIN DEGRADATION” (Ranok Therapeutics (Hangzhou) Co. Ltd., priority 2020, published 2023).

Experiment [1] concerns MIA PaCa-2 human pancreatic carcinoma. The experiment in a line: MIA PaCa-2 CCK-8 proliferation assay. The format is cell-based. The conditions noted are these: Homo sapiens, MIA PaCa-2, 72 h, MIA PaCa-2 cells. In outline:
(§1)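 Proliferation of mutant-KRAS(G12C) cells (2 copies in MIA PaCa-2, single copy in NCI-H358/NCI-H23) measured with CCK-8 after treatment across 20 μM–1.02 nM; inhibition expressed relative to vehicle-treated wells after subtracting no-cell background.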

Experiment [2] concerns the target KRAS(G12C) (Homo sapiens, UniProt P01116, G12C). The experiment in a line: KRAS(G12C)/SOS1 homogeneous time-resolved fluorescence (HTRF) assay. The following applies: absence of GTP, 4° C. for 3 hr, read-out: KRAS (G12C) binding. The arrangement: purchased Cisbio 63ADK000CB16PEG. In outline:
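Three-hour incubation at 4 °C of 3-fold compound dilutions (lowest 1.02 nM) with KRAS(G12C), SOS1 and detection reagents, GTP absent. Disruption of the KRAS(G12C)/SOS1 complex detected by time-resolved fluorescence.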
For orientation: TR-FRET usually uses a lanthanide donor and a delayed reading to cut background.

In experiment [3] the target is T1, HSP90a protein (Homo sapiens, UniProt P07900).
T1 construct: purchased BPS Bioscience 50298
Description: HSP90α-binding fluorescent polarization (FP) assay, BODIPY-labeled RNK04010 probe. The conditions noted are these: FP competition with RNK04010 (BODIPY-labeled), 5 nM, 300 min at 25° C. In outline: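 Compounds (20 μM down to 5.2 nM, 2.5-fold steps) compete with a 5 nM fluorescent tracer for N-terminal HSP90a, measured by fluorescence polarization. With FITC-geldanamycin, plates sit 120 min at 25 °C. With BODIPY-RNK04010, they sit 300 min at 25 °C.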

For experiment [4], the system named is NCI-H358 human non-small cell lung cancer. The experiment in a line: NCI-H358 CCK-8 proliferation assay. The conditions noted are these: NCI-H358 cells, 72 hr. It counts as cell-based. A digest of the protocol: as §1
The test system of experiment [5] is NCI-H23 human non-small cell lung cancer. Description: NCI-H23 CCK-8 proliferation assay. It counts as cell-based. The following applies: NCI-H23 cells, 72 hr. In outline: as §1
(Tetrazolium dyes change colour on reduction, which living cells bring about.)

The term EC50 denotes the concentration at which the effect is half-maximal. A low value points to a more potent agent.

Chain of KRAS(G12C) (P01116 1-188 isoform P01116-2 G12C): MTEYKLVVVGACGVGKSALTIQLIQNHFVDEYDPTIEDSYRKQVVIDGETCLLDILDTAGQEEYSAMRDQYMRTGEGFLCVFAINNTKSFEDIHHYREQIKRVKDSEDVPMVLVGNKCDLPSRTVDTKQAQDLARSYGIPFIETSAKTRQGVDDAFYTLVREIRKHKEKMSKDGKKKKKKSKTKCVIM

As for `C=CC(=O)N1CCN(c2nc(NCCC(=O)N3CCC(CN4CCN(Cc5ccc(-n6c(O)nnc6-c6cc(C(C)C)c(O)cc6O)cc5)CC4)CC3)nc3c2CCN(c2cc(O)cc4ccccc24)C3)CC1` [Compound 14, 1-(4-(2-((3-(4-((4-(4-(3-(2,4-dihydroxy-5-isopropylphenyl)-5-hydroxy-4H-1,2,4-triazol-4-yl)benzyl)piperazin-1-yl)methyl)piperidin-1-yl)-3-oxopropyl)amino)-7-(3-hydroxynaphthalen-1-yl)-5,6,7,8-tetrahydropyrido[3,4-d]pyrimidin-4-yl)piperazin-1-yl)prop-2-en-1-one, trifluoroacetic acid], the EC50 was above 1000 nM in experiment [1], 100 to 1000 nM in experiment [4] and above 1000 nM in experiment [5]. For the same molecule, the IC50 in experiment [2] is above 1000 nM; in experiment [3], below 100 nM.
As to `C=CC(=O)N1CCN(c2nc(NCCC(=O)NCCc3ccc(CN4CCC(Cc5ccc(-n6c(C(=O)NCC(F)(F)F)nnc6-c6cc(C(C)C)c(O)cc6O)cc5)CC4)cc3)nc3c2CCN(c2cc(O)cc4ccccc24)C3)CC1` [Compound 24, 4-(4-((1-(4-(2-(3-((4-(4-acryloylpiperazin-1-yl)-7-(3-hydroxynaphthalen-1-yl)-5,6,7,8-tetrahydropyrido[3,4-d]pyrimidin-2-yl)amino)propanamido)ethyl)benzyl)piperidin-4-yl)methyl)phenyl)-5-(2,4-dihydroxy-5-isopropylphenyl)-N-(2,2,2-trifluoroethyl)-4H-1,2,4-triazole-3-carboxamide, trifluoroacetic acid], the results for the EC50 in experiment [1], in experiment [4] and in experiment [5] were 100 to 1000 nM, 100 to 1000 nM and above 1000 nM, respectively. The IC50 in experiment [2] is above 1000 nM; in experiment [3], 100 to 1000 nM.
Regarding `CC(=O)N1CCN(c2nc(NCCC(=O)NCc3ccc(CN4CCC(Cc5ccc(-n6c(C(=O)NCC(F)(F)F)nnc6-c6cc(C(C)C)c(O)cc6O)cc5)CC4)cc3)nc3c2CCN(c2cc(O)cc4ccccc24)C3)CC1` [Compound 54, 4-(4-((1-(4-((3-((4-(4-acetylpiperazin-1-yl)-7-(3-hydroxynaphthalen-1-yl)-5,6,7,8-tetrahydropyrido[3,4-d]pyrimidin-2-yl)amino)propanamido)methyl)benzyl)piperidin-4-yl)methyl)phenyl)-5-(2,4-dihydroxy-5-isopropylphenyl)-N-(2,2,2-trifluoroethyl)-4H-1,2,4-triazole-3-carboxamide, trifluoroacetic acid], the EC50 in experiment [1] was below 100 nM; in experiment [4] it was 100 to 1000 nM; in experiment [5], 100 to 1000 nM. For the same molecule, the IC50 in experiment [2] was above 1000 nM; in experiment [3] it was 100 to 1000 nM.
Regarding `CCC(=O)N1CCN(c2nc(NCCC(=O)N3CCC(CN4CCN(Cc5ccc(-n6c(C(=O)NC(C)C)nnc6-c6cc(CC)c(O)cc6O)cc5)CC4)CC3)nc3c2CCN(c2cc(O)cc4ccccc24)C3)CC1` [Compound 64, 5-(5-ethyl-2,4-dihydroxyphenyl)-4-(4-((4-((1-(3-((7-(3-hydroxynaphthalen-1-yl)-4-(4-propionylpiperazin-1-yl)-5,6,7,8-tetrahydropyrido[3,4-d]pyrimidin-2-yl)amino)propanoyl)piperidin-4-yl)methyl)piperazin-1-yl)methyl)phenyl)-N-isopropyl-4H-1,2,4-triazole-3-carboxamide, trifluoroacetic acid], the IC50 in experiment [2] is above 1000 nM; in experiment [3], 100 to 1000 nM. Also, the EC50 in experiment [4] and in experiment [5] was 100 to 1000 nM throughout.
On to `C=CC(=O)N1CCN(c2nc(NCCC(=O)N3CCC(CN4CCN(Cc5ccc(-n6c(C(=O)NCC(F)(F)F)nnc6-c6cc(CC)c(O)cc6O)cc5)CC4)CC3)nc3c2CCN(c2cccc4ccccc24)C3)C[C@H]1CC#N` [Compound 76, (R)-4-(4-((4-((1-(3-((4-(4-acryloyl-3-(cyanomethyl)piperazin-1-yl)-7-(naphthalen-1-yl)-5,6,7,8-tetrahydropyrido[3,4-d]pyrimidin-2-yl)amino)propanoyl)piperidin-4-yl)methyl)piperazin-1-yl)methyl)phenyl)-5-(5-ethyl-2,4-dihydroxyphenyl)-N-(2,2,2-trifluoroethyl)-4H-1,2,4-triazole-3-carboxamide, trifluoroacetic acid], for which the IC50 in experiment [2] is above 1000 nM; in experiment [3], 100 to 1000 nM. Moreover, the EC50 in experiment [4] and in experiment [5] was 100 to 1000 nM each time.
In the case of `C=CC(=O)N1CCN(c2nc(NCCC(=O)N3CCC(CN4CCN(Cc5ccc(-n6c(C(=O)NCC(F)(F)F)nnc6-c6cc(C)c(O)cc6O)cc5)CC4)CC3)nc3c2CCN(c2cccc4cccc(Cl)c24)C3)C[C@H]1CC#N` [Compound 79, (R)-4-(4-((4-((1-(3-((4-(4-acryloyl-3-(cyanomethyl)piperazin-1-yl)-7-(8-chloronaphthalen-1-yl)-5,6,7,8-tetrahydropyrido[3,4-d]pyrimidin-2-yl)amino)propanoyl)piperidin-4-yl)methyl)piperazin-1-yl)methyl)phenyl)-5-(2,4-dihydroxy-5-methylphenyl)-N-(2,2,2-trifluoroethyl)-4H-1,2,4-triazole-3-carboxamide, trifluoroacetic acid], the IC50 is above 1000 nM in experiment [2] and 100 to 1000 nM in experiment [3]. The EC50 in experiment [4] and in experiment [5] was 100 to 1000 nM throughout.
Regarding `C=CC(=O)N1CCN(c2nc(NCCC(=O)NCc3ccc(CN4CCC(Cc5ccc(-n6c(C(=O)NCC(F)(F)F)nnc6-c6cc(C(C)C)c(O)cc6O)cc5)CC4)cc3)nc3c2CCN(c2cccc4ccccc24)C3)C[C@H]1CC#N` [Compound 95, (R)-4-(4-((1-(4-((3-((4-(4-acryloyl-3-(cyanomethyl)piperazin-1-yl)-7-(naphthalen-1-yl)-5,6,7,8-tetrahydropyrido[3,4-d]pyrimidin-2-yl)amino)propanamido)methyl)benzyl)piperidin-4-yl)methyl)phenyl)-5-(2,4-dihydroxy-5-isopropylphenyl)-N-(2,2,2-trifluoroethyl)-4H-1,2,4-triazole-3-carboxamide, trifluoroacetic acid], the IC50 in experiment [2] was above 1000 nM; in experiment [3], 100 to 1000 nM. The EC50 in experiment [4] and in experiment [5] was 100 to 1000 nM in each case.
